Laboratory results published in ChEMBL document CHEMBL1201862, “PubChem BioAssay data set” (2004).
Activity calls are given as the source filed them.

Legend:
Beta-lactamase [1] = target: Beta-lactamase (Pseudomonas aeruginosa, UniProt Q79MP6);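 also: biochemical dose-response test of metallo-beta-lactamase enzyme inhibition, read out by epi-absorbance; purified recombinant IMP-1 metallo-beta-lactamase with nitrocefin as substrate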
Keap1/Nrf2 = Keap1/Nrf2 (Homo sapiens, UniProt Q14145); test: Keap1-Nrf2 protein-protein interaction inhibitors, dose response, biochemical, fluorescence polarization, cherry-picked samples (AID 588683)
HEK293 [2] = test: HEK cell cytotoxicity by LDH release, dose response, cytotoxicity control for IDE activator project, fluorescence, HEK cells (AID 588440); assay type: functional, cell-based; details: Homo sapiens;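 also: cytotoxicity by LDH release measuring loss of membrane integrity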
Beta-lactamase [3] = target: Beta-lactamase (Salmonella choleraesuis (strain SC-B67), UniProt Q5J463)
Sequence of Beta-lactamase (Salmonella choleraesuis (strain SC-B67), UniProt Q5J463) (Q5J463 whole entry): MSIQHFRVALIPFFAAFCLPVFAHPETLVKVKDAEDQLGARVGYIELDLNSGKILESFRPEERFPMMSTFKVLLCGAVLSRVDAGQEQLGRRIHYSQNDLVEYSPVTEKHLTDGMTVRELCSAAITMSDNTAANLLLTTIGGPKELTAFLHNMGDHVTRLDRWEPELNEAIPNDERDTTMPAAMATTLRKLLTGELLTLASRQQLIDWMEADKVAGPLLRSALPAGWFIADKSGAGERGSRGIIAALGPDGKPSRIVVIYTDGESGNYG

Insulin-degrading enzyme [4] = target: T1, Insulin-degrading enzyme (Homo sapiens, UniProt P14735); test: activators of recombinant IDE enzyme, dose response, counter-screen for IDE activator project, biochemical, fluorescence polarization (AID 588681)
T1 sequence (P14735 whole entry): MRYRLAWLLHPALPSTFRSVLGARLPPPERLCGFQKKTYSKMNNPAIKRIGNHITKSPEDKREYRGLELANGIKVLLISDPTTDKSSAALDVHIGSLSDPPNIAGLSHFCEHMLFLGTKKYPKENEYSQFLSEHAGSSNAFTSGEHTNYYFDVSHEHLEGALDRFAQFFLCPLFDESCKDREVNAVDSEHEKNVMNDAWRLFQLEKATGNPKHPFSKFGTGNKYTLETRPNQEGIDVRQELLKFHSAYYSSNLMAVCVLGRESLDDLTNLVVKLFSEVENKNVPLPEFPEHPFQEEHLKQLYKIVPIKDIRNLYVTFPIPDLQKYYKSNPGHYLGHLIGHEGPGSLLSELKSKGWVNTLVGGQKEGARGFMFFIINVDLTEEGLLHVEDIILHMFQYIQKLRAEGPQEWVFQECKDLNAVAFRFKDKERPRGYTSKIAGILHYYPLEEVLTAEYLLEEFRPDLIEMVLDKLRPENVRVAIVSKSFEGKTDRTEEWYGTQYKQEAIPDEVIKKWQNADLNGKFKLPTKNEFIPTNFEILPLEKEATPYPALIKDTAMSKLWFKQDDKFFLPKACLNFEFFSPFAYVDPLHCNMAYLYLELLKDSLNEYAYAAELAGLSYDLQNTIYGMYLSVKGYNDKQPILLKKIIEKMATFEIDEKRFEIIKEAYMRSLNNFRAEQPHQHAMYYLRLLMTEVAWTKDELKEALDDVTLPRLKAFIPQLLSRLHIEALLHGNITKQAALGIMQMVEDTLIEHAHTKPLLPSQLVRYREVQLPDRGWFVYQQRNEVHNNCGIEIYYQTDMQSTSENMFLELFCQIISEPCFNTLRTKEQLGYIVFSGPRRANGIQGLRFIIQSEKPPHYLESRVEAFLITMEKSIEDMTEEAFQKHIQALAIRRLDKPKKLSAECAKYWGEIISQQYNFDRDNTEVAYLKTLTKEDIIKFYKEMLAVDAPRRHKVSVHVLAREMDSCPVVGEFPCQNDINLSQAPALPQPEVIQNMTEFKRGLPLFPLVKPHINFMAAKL

Insulin-degrading enzyme [5] = target: T1, Insulin-degrading enzyme; test: activators of endogenous IDE in HEK cells, dose response, cell-based, fluorescence polarization (AID 588439); assay type: functional
HEK293 [6] = test: optical interference in Abeta FP readout, dose response, artefact control for IDE activator project, biochemical, fluorescence polarization (AID 588442); assay type: functional, cell-based; details: Homo sapiens
ORF 73 = ORF 73 (Human herpesvirus 8, UniProt O40947); test: inhibitors of C-LANA binding to LBS DNA, dose response, biochemical, fluorescence polarization, cherry-picked samples (AID 504725); design: species or system Human gammaherpesvirus 8;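 also: fluorescence polarization of a labeled DNA duplex reporting LANA DNA binding; potency is for inhibitors that block LANA binding to the DNA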
INS1 [7] = test: protection of INS-1E cells from cytokine death, dose response, ATP luminescence, dry powder (AID 488844); assay type: functional, cell-based; details: Rattus norvegicus
INS1 [8] = test: protection from cytokine-induced mitochondrial depolarization, dose response, cell-based, INS-1E, JC-1 fluorescence ratio, dry powder (AID 488931); assay type: functional; details: Rattus norvegicus
INS1 [9] = test: protection from cytokine-driven beta-cell apoptosis, dose response, JC-1 fluorescence, INS-1E, dry powder, set 2 (AID 488867); assay type: functional, cell-based; details: Rattus norvegicus
Phospholipase D1 = Phospholipase D1 (Homo sapiens, UniProt Q13393); test: PLD1 inhibitor potency in cells, dose response (AID 602151); assay type: functional;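 also: cellular PLD1 assay in Calu-1 cells stimulated with PMA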
Sequence of Phospholipase D1 (Q13393 whole entry): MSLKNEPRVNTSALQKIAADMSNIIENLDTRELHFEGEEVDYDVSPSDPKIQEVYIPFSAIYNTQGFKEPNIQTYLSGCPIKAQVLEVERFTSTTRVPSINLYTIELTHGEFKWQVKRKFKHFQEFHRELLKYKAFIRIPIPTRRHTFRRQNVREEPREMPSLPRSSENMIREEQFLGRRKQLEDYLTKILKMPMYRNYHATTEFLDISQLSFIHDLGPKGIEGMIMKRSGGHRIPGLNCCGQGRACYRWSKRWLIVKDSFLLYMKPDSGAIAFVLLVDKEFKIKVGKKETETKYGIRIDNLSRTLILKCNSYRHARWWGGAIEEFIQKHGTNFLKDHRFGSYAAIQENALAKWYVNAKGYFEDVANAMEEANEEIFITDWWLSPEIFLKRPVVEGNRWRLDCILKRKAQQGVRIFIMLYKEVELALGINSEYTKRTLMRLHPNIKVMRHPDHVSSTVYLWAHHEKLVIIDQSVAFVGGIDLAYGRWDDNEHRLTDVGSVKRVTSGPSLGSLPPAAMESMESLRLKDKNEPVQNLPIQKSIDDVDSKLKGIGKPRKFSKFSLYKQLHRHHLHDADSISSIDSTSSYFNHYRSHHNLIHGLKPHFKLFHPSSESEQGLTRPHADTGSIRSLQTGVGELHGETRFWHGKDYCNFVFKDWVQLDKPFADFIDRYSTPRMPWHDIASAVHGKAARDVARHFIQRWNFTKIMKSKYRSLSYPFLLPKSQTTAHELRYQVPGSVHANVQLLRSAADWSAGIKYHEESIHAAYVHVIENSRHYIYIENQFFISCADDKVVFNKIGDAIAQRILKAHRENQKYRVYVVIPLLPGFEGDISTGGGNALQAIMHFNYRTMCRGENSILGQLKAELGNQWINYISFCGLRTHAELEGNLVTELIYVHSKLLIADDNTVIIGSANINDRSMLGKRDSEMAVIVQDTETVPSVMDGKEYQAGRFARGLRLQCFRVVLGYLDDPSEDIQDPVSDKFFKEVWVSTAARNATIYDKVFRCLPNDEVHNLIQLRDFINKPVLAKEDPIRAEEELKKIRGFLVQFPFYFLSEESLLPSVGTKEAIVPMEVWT

Phospholipase D2 = Phospholipase D2 (Homo sapiens, UniProt O14939); test: PLD2 inhibitor potency in cells, dose response (AID 602147); assay type: functional;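 also: cellular assay in HEK293 cells overexpressing GFP-tagged PLD2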
Hexokinase-1 = Hexokinase-1 (Homo sapiens, UniProt P19367); test: HK1 enzyme inhibition by HKDC1 hits, SAR follow-up, selectivity assay for HKDC1 inhibitor project, biochemical, set 2, resazurin fluorescence coupled readout (AID 588356); assay type: functional
Sequence of Hexokinase-1 (P19367 whole entry): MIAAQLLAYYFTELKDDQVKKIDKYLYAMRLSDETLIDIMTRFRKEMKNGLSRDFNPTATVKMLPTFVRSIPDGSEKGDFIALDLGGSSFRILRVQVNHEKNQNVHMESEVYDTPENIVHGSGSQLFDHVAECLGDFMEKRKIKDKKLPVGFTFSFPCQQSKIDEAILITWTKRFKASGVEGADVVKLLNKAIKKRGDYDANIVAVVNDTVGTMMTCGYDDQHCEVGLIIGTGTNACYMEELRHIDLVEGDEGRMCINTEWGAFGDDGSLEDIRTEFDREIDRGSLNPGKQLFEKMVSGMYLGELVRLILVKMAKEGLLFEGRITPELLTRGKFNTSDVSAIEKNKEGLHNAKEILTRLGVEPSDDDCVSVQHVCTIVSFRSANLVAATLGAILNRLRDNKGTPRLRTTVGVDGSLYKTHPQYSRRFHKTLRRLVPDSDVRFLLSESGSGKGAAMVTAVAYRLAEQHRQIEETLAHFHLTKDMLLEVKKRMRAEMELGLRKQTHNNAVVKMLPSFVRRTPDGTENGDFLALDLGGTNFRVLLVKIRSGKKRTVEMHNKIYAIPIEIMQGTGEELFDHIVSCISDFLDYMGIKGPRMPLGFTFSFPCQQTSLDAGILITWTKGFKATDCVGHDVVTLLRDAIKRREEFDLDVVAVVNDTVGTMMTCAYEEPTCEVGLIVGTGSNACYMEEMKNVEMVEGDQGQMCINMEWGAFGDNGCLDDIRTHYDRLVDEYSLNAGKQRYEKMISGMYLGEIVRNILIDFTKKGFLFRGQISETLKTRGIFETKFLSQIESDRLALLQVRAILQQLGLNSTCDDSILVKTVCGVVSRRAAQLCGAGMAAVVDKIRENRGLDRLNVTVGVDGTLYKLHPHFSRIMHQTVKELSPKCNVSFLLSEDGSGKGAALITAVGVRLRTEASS

Hexokinase HKDC1 [10] = target: T2, Hexokinase HKDC1 (Homo sapiens, UniProt Q2TB90); test: HKDC1 hexokinase inhibitors, dose response, biochemical, W721R variant (AID 504729); assay type: functional
T2 sequence (Q2TB90 whole entry): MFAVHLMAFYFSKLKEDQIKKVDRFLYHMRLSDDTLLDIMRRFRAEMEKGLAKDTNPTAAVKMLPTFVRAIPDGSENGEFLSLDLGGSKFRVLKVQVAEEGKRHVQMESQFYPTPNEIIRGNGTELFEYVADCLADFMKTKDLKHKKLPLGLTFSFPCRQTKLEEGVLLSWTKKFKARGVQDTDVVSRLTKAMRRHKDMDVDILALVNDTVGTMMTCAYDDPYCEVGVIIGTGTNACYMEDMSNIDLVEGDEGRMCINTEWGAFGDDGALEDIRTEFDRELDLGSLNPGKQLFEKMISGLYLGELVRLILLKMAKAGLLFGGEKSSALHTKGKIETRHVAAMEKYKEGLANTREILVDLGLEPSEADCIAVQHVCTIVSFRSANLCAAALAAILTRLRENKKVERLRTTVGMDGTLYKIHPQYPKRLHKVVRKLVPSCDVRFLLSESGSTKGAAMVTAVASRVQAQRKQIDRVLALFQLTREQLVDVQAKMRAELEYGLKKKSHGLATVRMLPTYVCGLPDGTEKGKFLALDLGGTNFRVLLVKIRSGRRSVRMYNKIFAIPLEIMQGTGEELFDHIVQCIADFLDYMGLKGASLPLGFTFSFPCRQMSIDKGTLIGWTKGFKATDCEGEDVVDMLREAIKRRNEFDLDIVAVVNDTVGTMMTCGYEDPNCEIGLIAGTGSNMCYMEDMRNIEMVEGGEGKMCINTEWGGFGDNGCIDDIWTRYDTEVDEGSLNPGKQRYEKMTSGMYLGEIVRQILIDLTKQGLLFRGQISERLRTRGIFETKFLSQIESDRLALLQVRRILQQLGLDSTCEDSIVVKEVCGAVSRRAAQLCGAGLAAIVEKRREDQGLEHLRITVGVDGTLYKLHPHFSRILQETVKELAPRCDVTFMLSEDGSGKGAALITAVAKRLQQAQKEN

Hexokinase HKDC1 [11] = target: T2, Hexokinase HKDC1; test: HKDC1 hexokinase inhibitors, SAR follow-up, biochemical, set 2 (AID 588355); assay type: functional
Protein RecA = target: T3, Protein RecA (Mycobacterium tuberculosis, UniProt P9WHJ3); test: Fluorescence Cell-Free Homogeneous Dose Retest to Identify Inhibitors of RecA-Intein Splicing Activity. [Related pubchem assays (depositor defined):AID2097, AID2223, AID489010, AID492950]; assay type: functional
T3 sequence (P9WHJ3 whole entry): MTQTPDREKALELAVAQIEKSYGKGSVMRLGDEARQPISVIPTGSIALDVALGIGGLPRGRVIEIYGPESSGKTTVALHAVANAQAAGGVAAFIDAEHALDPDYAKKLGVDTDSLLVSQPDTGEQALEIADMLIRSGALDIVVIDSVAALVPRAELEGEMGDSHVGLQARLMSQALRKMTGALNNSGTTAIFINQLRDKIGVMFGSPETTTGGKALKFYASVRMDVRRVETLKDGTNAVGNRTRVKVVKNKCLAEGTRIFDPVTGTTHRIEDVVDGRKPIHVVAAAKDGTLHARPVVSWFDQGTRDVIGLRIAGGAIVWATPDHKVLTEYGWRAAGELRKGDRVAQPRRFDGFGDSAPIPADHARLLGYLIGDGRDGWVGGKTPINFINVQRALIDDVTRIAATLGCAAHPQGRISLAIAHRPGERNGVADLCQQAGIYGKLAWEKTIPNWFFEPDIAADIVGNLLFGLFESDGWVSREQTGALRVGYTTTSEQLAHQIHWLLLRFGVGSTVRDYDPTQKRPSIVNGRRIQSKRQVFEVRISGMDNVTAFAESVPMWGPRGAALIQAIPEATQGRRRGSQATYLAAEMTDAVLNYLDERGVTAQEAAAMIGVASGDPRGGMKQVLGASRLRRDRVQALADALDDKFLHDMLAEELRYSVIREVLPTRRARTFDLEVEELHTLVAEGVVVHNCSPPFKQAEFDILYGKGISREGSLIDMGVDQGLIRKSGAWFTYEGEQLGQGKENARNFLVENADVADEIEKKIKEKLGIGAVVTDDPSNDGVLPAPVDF

[12] = target: T4, Replicative DNA helicase DnaB (Mycobacterium tuberculosis, UniProt P9WMR3); test: DnaB intein splicing inhibitors, dose response, biochemical, cell-free fluorescence (AID 449749); assay type: functional
T4 sequence (P9WMR3 whole entry): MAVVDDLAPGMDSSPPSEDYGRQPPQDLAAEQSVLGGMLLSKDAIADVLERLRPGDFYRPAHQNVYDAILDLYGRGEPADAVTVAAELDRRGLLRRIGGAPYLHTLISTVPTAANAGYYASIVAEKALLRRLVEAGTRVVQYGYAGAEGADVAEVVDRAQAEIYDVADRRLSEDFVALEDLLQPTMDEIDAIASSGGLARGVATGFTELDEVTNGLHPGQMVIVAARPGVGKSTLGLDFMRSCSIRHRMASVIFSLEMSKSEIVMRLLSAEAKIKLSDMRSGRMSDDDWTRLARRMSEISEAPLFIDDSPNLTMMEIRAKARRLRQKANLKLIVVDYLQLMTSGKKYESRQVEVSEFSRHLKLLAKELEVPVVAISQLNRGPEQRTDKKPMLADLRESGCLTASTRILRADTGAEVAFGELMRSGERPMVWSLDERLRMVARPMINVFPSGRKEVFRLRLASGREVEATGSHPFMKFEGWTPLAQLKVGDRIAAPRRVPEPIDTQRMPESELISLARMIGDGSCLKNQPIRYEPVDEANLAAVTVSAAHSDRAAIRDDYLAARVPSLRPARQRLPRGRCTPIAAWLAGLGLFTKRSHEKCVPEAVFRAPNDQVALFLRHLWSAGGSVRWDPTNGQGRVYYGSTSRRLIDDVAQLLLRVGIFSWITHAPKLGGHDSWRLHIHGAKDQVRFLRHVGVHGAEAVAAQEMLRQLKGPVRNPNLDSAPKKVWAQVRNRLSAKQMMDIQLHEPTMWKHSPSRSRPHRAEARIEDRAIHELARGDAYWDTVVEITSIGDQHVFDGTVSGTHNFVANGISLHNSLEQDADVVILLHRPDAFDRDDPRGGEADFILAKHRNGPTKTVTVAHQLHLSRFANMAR

[13] = inhibitors of SNCA 5'UTR-driven reporter translation, confirmation, H4 neuroglioma cells, luminescence (AID 1988); assay type: functional, cell-based
[14] = HEp-2 cell cytotoxicity, dose response, cytotoxicity control for RSV inhibitor project, HTS (AID 2410); assay type: functional; details: human respiratory syncytial virus
[15] = inhibitors of firefly luciferase expression or activity, dose response, H4 neuroglioma cells, luminescence (AID 1990); assay type: functional, cell-based
[16] = cytotoxicity toward NIH3T3 fibroblasts, dose response, counter-screen, cell-based, ATP luminescence, mouse fibroblasts (AID 2010); assay type: functional;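 also: cells exposed to compound for about 90 hours before reading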
[17] = inhibitors of intracellular T. cruzi replication, confirmation, NIH3T3 host cells, beta-gal luminescence (AID 2044); assay type: functional, cell-based;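 also: intracellular parasites grown in NIH/3T3 mouse fibroblasts as host cells; luminescent beta-galactosidase reporter signal from transgenic T. cruzi replicating inside host cells; inhibitors lower the luminescence signal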
DNA topoisomerase = DNA topoisomerase (Yersinia pestis, UniProt A0A2S9PM60); test: Y. pestis Topo-I inhibitors, cleavage product readout, dose response, biochemical, cherry-pick (AID 588525)
[18] = Luminescence Cell-Based Dose Response HTS to Identify Inhibitors of 5'UTR Stem-Loop Driven Prion Protein mRNA Translation in H4 Neuroglioblastoma Cells. [Related pubchem assays: 1827 (Project Summary), 1813 (Primary HTS)]; assay type: functional
[19] = target: Voltage-gated inwardly rectifying potassium channel KCNH2 (Homo sapiens, UniProt Q12809); details: Potency;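 also: confirmatory quantitative high-throughput screen measuring inhibition of hERG channel activity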
Sequence of Voltage-gated inwardly rectifying potassium channel KCNH2 (Q12809 whole entry): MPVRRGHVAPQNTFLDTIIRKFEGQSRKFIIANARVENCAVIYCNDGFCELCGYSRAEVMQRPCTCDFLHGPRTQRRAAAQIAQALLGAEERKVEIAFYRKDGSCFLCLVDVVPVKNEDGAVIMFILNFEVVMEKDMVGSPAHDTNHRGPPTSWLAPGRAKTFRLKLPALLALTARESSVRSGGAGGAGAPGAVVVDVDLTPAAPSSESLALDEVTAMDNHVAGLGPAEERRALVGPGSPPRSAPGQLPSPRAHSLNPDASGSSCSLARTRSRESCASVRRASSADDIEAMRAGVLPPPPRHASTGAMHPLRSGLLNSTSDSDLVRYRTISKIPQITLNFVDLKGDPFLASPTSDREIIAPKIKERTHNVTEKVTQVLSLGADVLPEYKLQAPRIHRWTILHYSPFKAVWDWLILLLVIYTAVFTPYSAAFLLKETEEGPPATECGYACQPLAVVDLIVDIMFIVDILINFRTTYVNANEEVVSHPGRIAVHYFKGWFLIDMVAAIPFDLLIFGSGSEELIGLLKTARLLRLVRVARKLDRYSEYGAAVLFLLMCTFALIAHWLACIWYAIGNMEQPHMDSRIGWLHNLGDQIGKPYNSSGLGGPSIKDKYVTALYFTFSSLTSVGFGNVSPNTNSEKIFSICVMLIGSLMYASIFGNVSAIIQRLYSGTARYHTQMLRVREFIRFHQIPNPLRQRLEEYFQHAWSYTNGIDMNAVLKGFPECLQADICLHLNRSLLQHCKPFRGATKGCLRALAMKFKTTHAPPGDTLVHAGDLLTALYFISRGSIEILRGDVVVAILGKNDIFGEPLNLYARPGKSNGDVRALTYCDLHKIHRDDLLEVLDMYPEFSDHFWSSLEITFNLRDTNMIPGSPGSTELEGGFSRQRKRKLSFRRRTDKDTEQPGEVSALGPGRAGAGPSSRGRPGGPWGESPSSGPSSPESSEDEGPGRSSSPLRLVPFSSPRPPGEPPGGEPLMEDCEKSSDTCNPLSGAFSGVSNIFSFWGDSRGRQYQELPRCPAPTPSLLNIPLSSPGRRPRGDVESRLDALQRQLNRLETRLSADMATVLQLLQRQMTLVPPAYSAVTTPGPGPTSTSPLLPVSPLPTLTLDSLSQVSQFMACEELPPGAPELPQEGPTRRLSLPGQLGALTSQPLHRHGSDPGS

Sequence of Beta-lactamase (Pseudomonas aeruginosa, UniProt Q79MP6) (Q79MP6 whole entry): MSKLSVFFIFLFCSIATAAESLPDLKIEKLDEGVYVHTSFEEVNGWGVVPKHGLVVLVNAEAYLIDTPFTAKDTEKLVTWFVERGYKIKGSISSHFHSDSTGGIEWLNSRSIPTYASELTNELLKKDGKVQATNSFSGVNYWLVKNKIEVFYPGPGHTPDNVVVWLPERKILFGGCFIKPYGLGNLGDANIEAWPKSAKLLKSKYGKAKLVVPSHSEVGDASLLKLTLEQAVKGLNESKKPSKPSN

For CNc1ccc2c3c(cccc13)C(=O)N(C)C2=O, the IC50 (Beta-lactamase [1]) was 3.92 µM (active), the AC50 (Keap1/Nrf2) was 0.399 µM (active) and the IC50 (HEK293 [2]) was > 89.3 µM (inactive). The IC50 (Beta-lactamase [3]) was 2.2 µM (active), the EC50 (Insulin-degrading enzyme [4]) was > 54.8 µM (inactive) and the EC50 (Insulin-degrading enzyme [5]) was > 54.8 µM (inactive). The EC50 (HEK293 [6]) was 6.57 µM (active) and the AC50 (ORF 73) was 0.588 µM (active).

In the case of COc1ccc(S(=O)(=O)N(C)C[C@@H]2Oc3c(NC(=O)Nc4ccccc4)cccc3C(=O)N([C@@H](C)CO)C[C@H]2C)cc1, the AC50 (INS1 [7]) is reported as > 260 µM (inactive), the AC50 (INS1 [8]) is reported as 34.8 µM (active) and the AC50 (INS1 [9]) is reported as 58.9 µM (active).

With O=C(NCCN1CCC2(CC1)C(=O)NCN2c1ccccc1)c1ncc(F)cc1F the IC50 (Phospholipase D1) was 20 µM (active) and the IC50 (Phospholipase D2) was 5.4 µM (active).

With CC(=O)NC1C(=O)N(CCN2CCOCC2)c2ccc(C)cc21 (configuration not stated) the IC50 (Hexokinase-1) was > 80 µM (inactive), the IC50 (Hexokinase HKDC1 [10]) was 4.71 µM (active) and the IC50 (Hexokinase HKDC1 [11]) was 4.45 µM (active). For the same compound, the EC50 (Protein RecA) was 8.53 µM (active) and the AC50 [12] was 22.1 µM (active).

In the case of COc1ccc(-c2nc3c(c(=O)[nH]c(=O)n3Cc3ccccc3)n2Cc2ccccc2)cc1, the EC50 [13] is reported as 17.7 µM (active), the CC50 [14] is reported as 7.31 µM (active) and the EC50 [15] is reported as 26.7 µM (active). The EC50 [16] was > 60 µM (inconclusive), the EC50 [17] was 0.826 µM (active) and the AC50 (DNA topoisomerase) was 7.41 µM (active). For the same compound, the EC50 [18] was > 120 µM (not active).

In the case of CCCCOc1cc(CC2CNC(=O)N2)ccc1OC (configuration not stated) [RO-201724], the CC50 [14] is reported as 23.8 µM (active) and the AC50 [19] is reported as 3.55 µM (inconclusive).
